Structures are written as SMILES.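 Step 1: Grow cells in 96-well plates. Step 2: Expose to compound for 48 hours at 5 concentrations. Step 3: Interpolate endpoints linearly; if unreached, use highest concentration. GI50: concentration for 50% inhibition of growth.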 Activity calls are given as the source filed them. Cut-off read from the data, not from the text of the source: active = GI50 up to about 1.1 µM and inactive = higher. Where only a bound is given, the exact number is not on record here.

Some test systems named below: LOX IMVI; NCI/ADR-RES; BT-549; COLO 205; K562; OVCAR-8; 786-0; RPMI-8226; SF-295; OVCAR-5; A549; UACC-62; HOP-62; DU-145; HCC 2998; SK-OV-3; NCI-H226; SW-620; KM12.
What all share (experiment): inhibition of tumour cell growth, NCI panel, 48 h

In the case of `CN(C)CC1CCC/C(=C\c2ccc(OC(=O)/C=C/c3ccc(Cl)cc3)cc2)C1=O` (stereo not given), the GI50 is 1.58 µM (inactive) in the experiment on LOX IMVI; 7.43 µM (inactive) in the experiment on NCI/ADR-RES; 0.217 µM (active) with BT-549; 0.78 µM (active) in the experiment on COLO 205; 1.23 µM (inactive) in the experiment on K562; 5.62 µM (inactive) with OVCAR-8. The GI50 with 786-0 was 1.07 µM (active); in the experiment with RPMI-8226, 0.294 µM (active); in the experiment with SF-295, 7.6 µM (inactive); in the experiment on OVCAR-5, 16.7 µM (inactive); in the experiment on A549, 8.49 µM (inactive); with UACC-62, 8.81 µM (inactive). The GI50 with HOP-62 is 6.25 µM (inactive); with DU-145 it was 5.2 µM (inactive); with HCC 2998, 5.43 µM (inactive); with SK-OV-3, 21.3 µM (inactive); in the experiment on NCI-H226, 11 µM (inactive); with SW-620, 1.69 µM (inactive). For the same compound, the GI50 in the experiment on KM12 is 1.47 µM (inactive).

Regarding `C[C@]12CC[C@H](O)C[C@@H]1CC[C@@H]1[C@@H]2CC[C@]2(C)[C@@H](c3cc(C(F)(F)F)[nH]n3)CC[C@@H]12`, the GI50 in the experiment with LOX IMVI was 6.11 µM (inactive); with NCI/ADR-RES, 6.32 µM (inactive); with BT-549, 8.39 µM (inactive); in the experiment on COLO 205, 4.13 µM (inactive); in the experiment with K562, 3.25 µM (inactive); with OVCAR-8, 5.35 µM (inactive). The GI50 with 786-0 was 4.35 µM (inactive); in the experiment with RPMI-8226, 3.96 µM (inactive); in the experiment on SF-295 it was 4.23 µM (inactive); in the experiment with OVCAR-5, 10.5 µM (inactive); in the experiment on A549 it was 4.8 µM (inactive); in the experiment on UACC-62, 14.1 µM (inactive). Besides, the GI50 in the experiment with HOP-62 is 7.38 µM (inactive); with DU-145, 10.9 µM (inactive); with HCC 2998, 15 µM (inactive); in the experiment on SK-OV-3, 13.8 µM (inactive); in the experiment with NCI-H226, 14.6 µM (inactive); with SW-620 it was 12.1 µM (inactive). For the same compound, the GI50 in the experiment with KM12 was 10.1 µM (inactive).

In the case of `CCC1(c2ccc(N3C(=O)c4cccc5cc([N+](=O)[O-])cc(c45)C3=O)cc2)CCC(=O)NC1=O` (stereo not given), the GI50 was 11.9 µM (inactive) in the experiment on LOX IMVI; 17 µM (inactive) in the experiment on NCI/ADR-RES; 13.5 µM (inactive) with BT-549; 9.57 µM (inactive) in the experiment with COLO 205; 17.1 µM (inactive) in the experiment with K562; 12 µM (inactive) in the experiment with OVCAR-8. Further, the GI50 in the experiment with 786-0 is 7.38 µM (inactive); in the experiment with RPMI-8226, 11.6 µM (inactive); in the experiment on SF-295 it was 15.9 µM (inactive); in the experiment with OVCAR-5, 60.8 µM (inactive); in the experiment with A549, 55.5 µM (inactive); in the experiment with UACC-62 it was 21 µM (inactive). Also, the GI50 was 9.12 µM (inactive) with HOP-62; > 44.9 µM (inactive) in the experiment on DU-145; 30.7 µM (inactive) in the experiment on HCC 2998; 15 µM (inactive) with SK-OV-3; 10.9 µM (inactive) in the experiment on NCI-H226; 11.4 µM (inactive) in the experiment on SW-620. Also, the GI50 with KM12 was > 100 µM (inactive).

Turning to `OC[C@H]1CC(c2nn[nH]n2)[C@H](O)[C@@H]1O` (stereo not given in full), the GI50 in the experiment on LOX IMVI, in the experiment on NCI/ADR-RES, in the experiment on BT-549, in the experiment with COLO 205, with K562 and in the experiment on OVCAR-8 was > 100 µM (inactive) in each case. Moreover, the GI50 in the experiment on 786-0 was > 100 µM (inactive); in the experiment with RPMI-8226, > 100 µM (inactive); in the experiment with SF-295, > 100 µM (inactive); in the experiment on OVCAR-5, > 100 µM (inactive); in the experiment on A549, > 100 µM (inactive); in the experiment with UACC-62 it was > 10 µM (inactive). Moreover, the GI50 in the experiment on HOP-62, in the experiment on DU-145, in the experiment on HCC 2998, with SK-OV-3, in the experiment on NCI-H226 and in the experiment on SW-620 was > 100 µM (inactive) in each case. The GI50 in the experiment with KM12 is > 100 µM (inactive).

Turning to `COc1ccc(-n2cnc3c(NC(CCSC)C(=O)O)ncnc32)cc1` (stereo not given), the GI50 in the experiment on LOX IMVI, in the experiment on NCI/ADR-RES, in the experiment with BT-549, with COLO 205, in the experiment with K562 and in the experiment with OVCAR-8 was > 100 µM (inactive) in each case. In addition, the GI50 in the experiment with 786-0, with RPMI-8226, in the experiment with SF-295, in the experiment with OVCAR-5, with A549 and in the experiment on UACC-62 was > 100 µM (inactive) throughout. For the same compound, the GI50 in the experiment on HOP-62, with DU-145, in the experiment on HCC 2998, in the experiment on SK-OV-3, in the experiment with NCI-H226 and with SW-620 was > 100 µM (inactive) in each case. The GI50 in the experiment on KM12 is > 100 µM (inactive).

Regarding `CCC1(O)CC(OC2CC(N(C)C)C(OC3CC(O)C(OC4CCC(=O)C(C)O4)C(C)O3)C(C)O2)c2c(cc3c(c2O)C(=O)c2c(O)ccc(O)c2C3=O)C1C(=O)OC` (stereo not given), the GI50 in the experiment on LOX IMVI is < 0.01 µM (active); in the experiment with NCI/ADR-RES it was < 0.01 µM (active); in the experiment on BT-549, < 0.0152 µM (active); in the experiment with COLO 205, < 0.01 µM (active); in the experiment on K562, < 0.01 µM (active); with OVCAR-8, < 0.01 µM (active). The GI50 was < 0.01 µM (active) with 786-0; < 0.01 µM (active) with RPMI-8226; < 0.01 µM (active) in the experiment on SF-295; 0.0123 µM (active) with OVCAR-5; < 0.01 µM (active) in the experiment on A549; < 0.01 µM (active) in the experiment on UACC-62. The GI50 with HOP-62, with DU-145, with HCC 2998, in the experiment on SK-OV-3, in the experiment with NCI-H226 and in the experiment with SW-620 was < 0.01 µM (active) throughout. Further, the GI50 in the experiment with KM12 is < 0.01 µM (active).

As to `CCN(CC)Cc1nc2sc3c(c2c(=O)n1-c1ccccc1)CCCC3`, the GI50 in the experiment with LOX IMVI was 13.8 µM (inactive); in the experiment with NCI/ADR-RES, 24.8 µM (inactive); in the experiment with BT-549, 28.3 µM (inactive); in the experiment on COLO 205, 17.7 µM (inactive); in the experiment with K562, 35.2 µM (inactive); with OVCAR-8 it was 17.5 µM (inactive). The GI50 was 17.7 µM (inactive) in the experiment on 786-0; 26.7 µM (inactive) in the experiment on RPMI-8226; 23.7 µM (inactive) in the experiment on SF-295; 19.7 µM (inactive) in the experiment on OVCAR-5; 20.5 µM (inactive) in the experiment on A549; 15.4 µM (inactive) in the experiment on UACC-62. Moreover, the GI50 in the experiment with HOP-62 was 27.4 µM (inactive); in the experiment on DU-145, 23 µM (inactive); in the experiment with HCC 2998 it was 17.6 µM (inactive); in the experiment with SK-OV-3 it was 23.7 µM (inactive); in the experiment on NCI-H226, 15.2 µM (inactive); with SW-620, 16.7 µM (inactive). In addition, the GI50 with KM12 was 46.3 µM (inactive).

With `Nc1ccc(CCSSCCc2ccc(N)cc2)cc1`, the GI50 was 21.9 µM (inactive) with LOX IMVI; 23.2 µM (inactive) in the experiment with NCI/ADR-RES; 25.5 µM (inactive) in the experiment with BT-549; 41.1 µM (inactive) in the experiment with COLO 205; 6.4 µM (inactive) with K562; 28 µM (inactive) in the experiment with OVCAR-8. For the same compound, the GI50 in the experiment with 786-0 is 17 µM (inactive); in the experiment with RPMI-8226, 25.1 µM (inactive); in the experiment with SF-295, 39 µM (inactive); in the experiment with OVCAR-5, 29.6 µM (inactive); with A549, 35.1 µM (inactive); with UACC-62 it was 26.5 µM (inactive). Also, the GI50 in the experiment on HOP-62 is 55.2 µM (inactive); in the experiment on DU-145, 28.3 µM (inactive); in the experiment on HCC 2998 it was 17.6 µM (inactive); with SK-OV-3 it was 43.6 µM (inactive); in the experiment on NCI-H226 it was 27.5 µM (inactive); in the experiment with SW-620, 30 µM (inactive). The GI50 in the experiment on KM12 was 30.3 µM (inactive).

Regarding `Cc1ccc(OCC2OC(n3cnc4nc(Cl)nc(Cl)c43)CC2Oc2ccc(C)cc2)cc1` (stereo not given), the GI50 with LOX IMVI is 2 µM (inactive); in the experiment on NCI/ADR-RES it was 15.3 µM (inactive); with BT-549, 9.51 µM (inactive); with COLO 205, 9.25 µM (inactive); with K562, 1.95 µM (inactive); in the experiment with OVCAR-8 it was 13.1 µM (inactive). The GI50 in the experiment with 786-0 is 5.25 µM (inactive); in the experiment with RPMI-8226 it was 2.62 µM (inactive); in the experiment on SF-295, 16.4 µM (inactive); in the experiment with OVCAR-5 it was 17.2 µM (inactive); in the experiment with A549, 27.3 µM (inactive); in the experiment with UACC-62 it was 6.04 µM (inactive). Further, the GI50 is 16.3 µM (inactive) in the experiment with HOP-62; 12.9 µM (inactive) in the experiment with DU-145; 3.39 µM (inactive) with HCC 2998; 30.3 µM (inactive) in the experiment with SK-OV-3; 12 µM (inactive) in the experiment with NCI-H226; 3.76 µM (inactive) in the experiment with SW-620. Moreover, the GI50 in the experiment on KM12 was 8.73 µM (inactive).

In the case of `COc1ccccc1/C=C1\Sc2scc(-c3ccc(O)c(O)c3)[n+]2C1=O`, the GI50 in the experiment on LOX IMVI was 18 µM (inactive); with NCI/ADR-RES, 27.3 µM (inactive); in the experiment with BT-549, 17.8 µM (inactive); with COLO 205, 19.6 µM (inactive); in the experiment with K562 it was 9.51 µM (inactive); in the experiment on OVCAR-8, 39.9 µM (inactive). The GI50 with 786-0 was 15.2 µM (inactive); in the experiment on RPMI-8226, 13.8 µM (inactive); with SF-295 it was 24.9 µM (inactive); with OVCAR-5, 26.5 µM (inactive); with A549, 45.8 µM (inactive); in the experiment on UACC-62 it was 16.7 µM (inactive). Besides, the GI50 in the experiment on HOP-62 was 29.7 µM (inactive); in the experiment with DU-145, 21.4 µM (inactive); in the experiment on HCC 2998 it was 16.6 µM (inactive); with SK-OV-3 it was 21.4 µM (inactive); with NCI-H226 it was 27.9 µM (inactive); in the experiment on SW-620 it was 15.9 µM (inactive). Further, the GI50 in the experiment with KM12 was 32 µM (inactive).

For the origin of these results see ChEMBL document CHEMBL1201862, “PubChem BioAssay data set” (2004).
